Reference: US20080207738A1, “DRUG COMBINATIONS TO TREAT DRUG RESISTANT TUMORS” (priority 2007, published 2008)
Read-outs that look alike come from different tables or passages of the source. Values belong to the compound of their own block, whether it stands above or below them.

What was measured:
[1] = test system: MCF-7/ADR cells; assay: MTT cell viability, MCF-7/ADR cells; type: cell-based, human; settings: 72 h, CCcompound104 5 μg/ml, EA 60 μM, CCcompound26/CCcompound3/CCcompound19 50 μM, alone or combined
Experimental: MCF/ADR cells were selected by incubating the parent MCF-7 with toxic concentrations (up to 10 μM) of adriamycin (doxorubicin). The selected drug resistant cells express both MDR1 and MRP1 among other molecular alterations as reviewed earlier [Kiss, Z., Tomono, M. and Anderson, W. B. (1994), “Phorbol ester selectively stimulates the phospholipase D-mediated hydrolysis of phosphatidylethanolamine in multidrug-resistant MCF-7 human breast carcinoma cells,” Biochem. J., 302, 649-654]. […] Ethacrynic acid (EA) alone, used at 60 μM concentration, decreased cell viability by about 24%, while CCcompound104 and EA in combination had 70% inhibitory effects (Table 7). In this cell line CCcompound104 and EA decreased cell viability synergistically.

[2] = in vitro; settings: human
Excerpt: (§1) For the determination of relative number of viable cells before and after treatments, in most cases the MTT assay was used. This calorimetric assay is based on the ability of living cells, but not dead cells, to reduce 3-(4, 5-dimethyl thiazol-2-yl)-2, 5-diphenyltetrazolium bromide [Carmichael, J, De Graff, W. G., Gazdar, A. F., Minna, J. D. and Mitchell, J. B. (1987), “Evaluation oftetrazolium-based semiautomated calorimetric assay: Assessment of chemosensitivity testing,” Cancer Res., 47, 936-942]. For this assay, cells were plated in 96-well plates (10,000-30,000 cells in case of cultured cells, 100,000 cells in case of healthy lymphocytes, and 200,000 cells in case of chronic lymphocytic leukemia or non-Hodgkin lymphocytes) in the respective incubation media. After a 24-h resting period, the cells were treated with the test agents and then incubated (in CO2 incubator under humidified atmosphere) for 72 hours (final incubation volume, 150 μl). The MTT assay was performed both with the untreated and treated cell cultures at the conclusion of the incubation. Often, the MTT assay also was performed at the start of treatments to allow assessment of proliferation rates in the control and treated cell cultures. All data presented are the average of 4 incubations (in 4 separate wells) with the same cell population.
Peripheral lymphocytes are known to be very sensitive to chemotherapy and this sensitivity often limits the dose of chemotherapy that can be employed. In this series of experiments, the combined effects of CCcompound104 alone or in combination with CCcompound26 or CCcompound3 were determined on the viability of peripheral lymphocytes to establish doses that reduce cell viability less than 50%. As in previous experiments, the treatments were performed for 72 hours.

[3] = test system: CLL cells; assay: cells; settings: Homo sapiens, CLL cell; for cytotoxicity at 5 µM: 72 h, CCcompound3 5 μM, alone or combined
Experimental: Heparinized peripheral-blood samples were obtained from chronic lymphocytic leukemia patients with more than 70% malignant cells after informed consent, in accordance with the Declaration of Helsinki. The blood samples (10-ml) were diluted 1:1 with cold phosphate buffered saline (PBS; 0.135 M NaCl, 2.7 mM KCl, 1.5 mM KH2PO4, 8 mM Na2HPO4 [pH 7.4]) and layered onto Ficoll-Hypaque (8-ml, specific gravity, 1.086; Life Technologies, Grand Island, N.Y.). Then, the blood was centrifuged at 433 g for 20 min, and mononuclear cells were removed from the interphase. Cells were washed twice with cold PBS and after each centrifugation step the pelleted cells were resuspended in 10-ml RPMI 1640 supplemented with 10% fetal bovine serum (inactivated for 30 min at 56° C.). A Coulter channelyzer (Coulter Electronics, Hialeah, Fla.) was used to determine the cell number. Then the number of cells was adjusted to 1×10^7 cells per 1 ml before using them for the experiments.
as §1

[4] = test system: lymphoma cells derived from non-Hodgkin patients; assay: MTT cell viability, lymphoma cells from non-Hodgkin patients; type: cell-based; settings: Homo sapiens, 72 h, CCcompound104 5 μg/ml, CCcompound26 1 μM, read-out: Inhibition (%) of viability
Experimental: Lymphoma cells derived from two non-Hodgkin lymphoma patients were treated with EA (15 μM) in the absence or presence of CCcompound104 (5 μg/ml)+CCcompound26 (1 μM) for 72 hours. […] However, the 3 agents together decreased the number of viable cells by 91 and 97%, respectively (Table 13).

[5] = test system: MCF-7 cells; assay: Cell viability, MCF-7 cells; type: cell-based; settings: Homo sapiens, MCF7, 72 h, read-out: decrease of cell viability
Experimental: The MCF-7 cells were isolated from a human mammary tumor. After combined treatments with 5 μg/ml of CCcompound104 and 1 μM of CCcompound26 for 72 hours, the viability of these cells was decreased by 42%. EA (30 μM) alone decreased cell viability by 32%, while the 3 agents together decreased cell viability about 100% (i.e. practically no viable cells remained after the treatments).

[6] = test system: parent L5178 cells; assay: Rhodamine 123 cellular content in parent L5178 cells (flow cytometry); type: cell-based, mouse; settings: data not shown
Experimental: The L5178 mouse T cell lymphoma parent cell line and its MDR1 expressing subline (L5178/MDR1) were used. […] The cells were adjusted to a concentration of 2×10^6 cells per ml, then resuspended in serum-free McCoy's 5A medium and 0.5-ml portions distributed into small (1.2-ml) Eppendorf centrifuge tubes. After adding various concentrations of test compounds as listed below in Table 2, the samples were incubated for 10 min at room temperature (22° C.). […] After centrifugation (450 g, 10 min) the pelleted cells were washed twice with PBS and resuspended in 0.5-ml of PBS for cytometry. The fluorescence intensity of the cell population was measured by flow cytometry using Beckton Dickinson's FACScan instrument.
The percentage mean fluorescence intensity (FL-1) was calculated for the treated parental and MDR1 cell lines as compared with that of untreated cells. […] Other values measured are Forward scattered count (FSC) and site scattered count (SSC).

[7] = Solubility in water; type: physicochemical
Excerpt: In one embodiment, CCcompound104, CCcompound26 and EA may be administered orally. The two CC compounds are water-soluble, while EA is first dissolved in absolute ethanol and diluted in water or a suitable physiologically compatible liquid solvent. In one embodiment of the invention, the CC compounds and EA are in the form of a tablet, gel capsule, a liquid, or the like. In each case, the compounds are mixed with one or more carriers chosen by one having ordinary skill in the art to best suit the goal of treatment. In addition to the active compounds, the tablet or gel may contain any component that is presently used in the pharmaceutical field to ensure firmness, stability, solubility and appropriate taste. Any additional component of the tablet or gel will be chemically inert; i.e., it will not participate in a chemical reaction with the active compounds or the other additives. Each compound may be prepared for oral consumption separately, or the tablet, gel capsule or liquid may contain any of the two components or all three components. Tablets containing 25 mg or 50 mg of EA can be purchased from Merck.

SMILES: CC[N+](C)(CC)CCOCc1ccc2sc3ccccc3c(=O)c2c1 [CCcompound3]
Inhibition (%) of viability [1]: 20.0% | cytotoxicity at 72 h, 1 μM ([2]; Inhibition (%) of viability): 0% | cytotoxicity at 72 h, 50 μM ([2]; decrease of viability of healthy lymphocytes): 6% | cytotoxicity at 5 µM ([3]; read-out: Inhibition (%) of viability, CLL patient 8, CCcompound104 5 μg/ml): 7.8% | cytotoxicity at 5 µM ([3]; read-out: Inhibition (%) of viability, CLL patient 9, CCcompound104 5 μg/ml): 11.1% | cytotoxicity at 5 µM ([3]; read-out: Inhibition (%) of viability, CLL patient 10, CCcompound104 5 μg/ml): 32% | cytotoxicity at 5 µM ([3]; read-out: Inhibition (%) of viability, CLL patient 11, CCcompound104 5 μg/ml): 33.3% | cytotoxicity at 5 µM ([3]; read-out: Inhibition (%) of viability, CLL patient 12, CCcompound104 5 μg/ml): 26% | cytotoxicity at 5 µM ([3]; read-out: Inhibition (%) of viability, CLL patient 13, CCcompound104 5 μg/ml): 12.5% | cytotoxicity at 5 µM ([3]; read-out: Inhibition (%) of viability, CLL patient 14, CCcompound104 5 μg/ml): 36.3% | cytotoxicity at 5 µM ([3]; read-out: Inhibition (%) of viability, CLL patient 15, CCcompound104 5 μg/ml): 3.3% | cytotoxicity at 5 µM ([3]; read-out: Inhibition (%) of viability, CLL patient 16, CCcompound104 5 μg/ml): 50.1% | cytotoxicity at 5 µM ([3]; read-out: Inhibition (%) of viability, CLL patient 17, CCcompound104 5 μg/ml): 0% | cytotoxicity at 5 µM ([3]; read-out: Inhibition (%) of viability, CLL patient 18, CCcompound104 5 μg/ml): 6% | cytotoxicity at 5 µM ([3]; read-out: Inhibition (%) of viability, CLL patient 19, CCcompound104 5 μg/ml): 9.2% | cytotoxicity at 5 µM ([3]; read-out: Inhibition (%) of viability, CLL patient 20, CCcompound104 5 μg/ml): 0%

SMILES: C=C(CC)C(=O)c1ccc(OCC(=O)O)c(Cl)c1Cl [EA, ethacrynic acid]
cytotoxicity at 60 µM ([1]; Homo sapiens, NCI/ADR-RES, read-out: Inhibition (%) of viability): ~24% | cytotoxicity at 30 µM ([3]; read-out: Inhibition (%) of viability, resistant CLL cells, patient 17, EA 30 μM, CCcompound104 5 μg/ml, CCcompound26 1 μM): 31.8% | cytotoxicity at 30 µM ([3]; read-out: Inhibition (%) of viability, resistant CLL cells, patient 18, EA 30 μM, CCcompound104 5 μg/ml, CCcompound26 1 μM): 38.3% | cytotoxicity at 30 µM ([3]; read-out: decrease of viability of resistant CLL cells, over patients 17 and 18, EA 30 μM, CCcompound104 5 μg/ml, CCcompound26 1 μM): 31 to 38% | cytotoxicity at 15 µM ([4]; non-Hodgkin patient 1, EA 15 μM): 36.8% | cytotoxicity at 15 µM ([4]; non-Hodgkin patient 2, EA 15 μM): 42.4% | cytotoxicity at 15 µM ([4]; non-Hodgkin patient 3, EA 15 μM): 48.2% | cytotoxicity at 15 µM ([4]; non-Hodgkin patient 4, EA 15 μM): 53.1% | cytotoxicity at 30 µM [5]: 32%

solubility in water [7]: water-soluble
SMILES: C[Si](C)(C)COc1ccc(C(=O)OCCN2CCN(CCCOC(=O)C3c4ccccc4Oc4ccccc43)CC2)cc1.Cl.Cl [CCcompound104]
effect on the cellular content of Rhodamine 123 [6]: no detectable effects
